Test systems include EKVX NSCLC; HOP-92 NSCLC; IGROV1 ovarian; KM12 colon; OVCAR-5 ovarian; NCI-H23 lung; HT29 colon; NCI-H522 lung; OVCAR-3 ovarian; U251 CNS.
Holding throughout (assay): growth of human tumour cells (NCI), 48 h

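Test compounds were applied to cells in 96-well plates for 48 hours at 5 doses. GI50 marks 50% less growth. TGI marks complete inhibition of growth.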

Turning to `O=P1(NCCCl)OCCC(OO)N1CCCl` (stereo not given), the TGI in the assay on EKVX NSCLC is greater than 100 µM; with HOP-92 NSCLC, 33.4 µM; with IGROV1 ovarian it was greater than 100 µM; in the assay with KM12 colon it was greater than 100 µM; in the assay with OVCAR-5 ovarian, greater than 100 µM; in the assay on NCI-H23 lung, greater than 84.8 µM. In addition, the TGI in the assay with HT29 colon is greater than 81.9 µM; with NCI-H522 lung, 25.6 µM; in the assay with OVCAR-3 ovarian, 53 µM; in the assay with U251 CNS it was greater than 100 µM.

For `Cn1c(=O)ccc2cc(C(=O)c3ccccc3)ccc21`, the TGI in the assay with EKVX NSCLC, in the assay on HOP-92 NSCLC, in the assay on IGROV1 ovarian, with KM12 colon, in the assay on OVCAR-5 ovarian and with NCI-H23 lung was greater than 100 µM throughout. Further, the TGI with HT29 colon is greater than 100 µM; in the assay on NCI-H522 lung, 82.7 µM; with OVCAR-3 ovarian, greater than 100 µM; in the assay with U251 CNS it was greater than 100 µM.

As to `Nc1nc(N)c(N=Nc2ccc([As](=O)(O)O)c(O)c2)c(N)n1`, the TGI in the assay on EKVX NSCLC, with HOP-92 NSCLC, in the assay with IGROV1 ovarian, with KM12 colon, in the assay with OVCAR-5 ovarian and in the assay on NCI-H23 lung was greater than 100 µM throughout. The TGI in the assay with HT29 colon is greater than 100 µM; in the assay on NCI-H522 lung, greater than 31 µM; with OVCAR-3 ovarian, greater than 64.2 µM; in the assay with U251 CNS, greater than 100 µM.

In the case of `CCn1cc(C(=O)O)c(=O)c2cc(F)c(N3CCNCC3)nc21`, the TGI in the assay on EKVX NSCLC, with HOP-92 NSCLC, in the assay with IGROV1 ovarian, with KM12 colon, in the assay with OVCAR-5 ovarian and in the assay on NCI-H23 lung was greater than 100 µM in each case. Besides, the TGI with HT29 colon, in the assay with NCI-H522 lung, in the assay with OVCAR-3 ovarian and in the assay on U251 CNS was greater than 100 µM throughout.

For `CCOC(=O)/C(C#N)=C/c1[nH]c(C)c(C)c1C`, the TGI in the assay on EKVX NSCLC, in the assay on HOP-92 NSCLC, in the assay with IGROV1 ovarian, with KM12 colon, in the assay with OVCAR-5 ovarian and in the assay with NCI-H23 lung was greater than 100 µM in each case. Besides, the TGI in the assay with HT29 colon, in the assay on NCI-H522 lung, in the assay with OVCAR-3 ovarian and with U251 CNS was greater than 100 µM in each case.

`O=C1COCCN1c1ccc(NCc2cn(Cc3ccc(F)cc3)c3ccccc23)cc1`: the GI50 in the assay with EKVX NSCLC was 10.8 µM; in the assay on HOP-92 NSCLC, 1.74 µM; with IGROV1 ovarian it was 0.0668 µM; in the assay on KM12 colon it was 15 µM; in the assay with OVCAR-5 ovarian, 0.0418 µM; in the assay on NCI-H23 lung, 2.64 µM. The GI50 was 1.67 µM in the assay with HT29 colon, 2.75 µM in the assay on NCI-H522 lung, 0.313 µM with OVCAR-3 ovarian and 0.645 µM in the assay with U251 CNS. For the same compound, the TGI is greater than 66.7 µM in the assay with EKVX NSCLC; 11.8 µM with HOP-92 NSCLC; 1.05 µM with IGROV1 ovarian; greater than 75.9 µM in the assay with KM12 colon; 0.231 µM with OVCAR-5 ovarian; 32.1 µM in the assay on NCI-H23 lung. The TGI with HT29 colon was greater than 100 µM; in the assay with NCI-H522 lung, 17.8 µM; in the assay on OVCAR-3 ovarian, 2.96 µM; in the assay on U251 CNS it was 38.5 µM.

Turning to `N=C(N)c1ccc(-c2ccc(-c3ccccc3)o2)o1`, the GI50 was 2.34 µM in the assay with EKVX NSCLC; 1.85 µM in the assay on HOP-92 NSCLC; 2.89 µM with IGROV1 ovarian; 2.61 µM with KM12 colon; 2.7 µM in the assay on OVCAR-5 ovarian; 5.78 µM with NCI-H23 lung. The GI50 in the assay on HT29 colon was 2.11 µM; in the assay on NCI-H522 lung, 1.94 µM; in the assay with OVCAR-3 ovarian, 3.13 µM; in the assay with U251 CNS, 2.22 µM. Further, the TGI was 9.37 µM in the assay on EKVX NSCLC; 4.73 µM in the assay with HOP-92 NSCLC; 11.8 µM with IGROV1 ovarian; 9.93 µM with KM12 colon; 10.9 µM with OVCAR-5 ovarian; 19.8 µM with NCI-H23 lung. For the same compound, the TGI in the assay on HT29 colon was found to be 4.7 µM; with NCI-H522 lung it was 3.89 µM; with OVCAR-3 ovarian, 11.9 µM; in the assay with U251 CNS, 5.12 µM.

`COc1ccc(/C=C/c2cnnc3ccccc23)cc1OC`: the TGI in the assay on EKVX NSCLC, in the assay on HOP-92 NSCLC, in the assay with IGROV1 ovarian, in the assay on KM12 colon, in the assay on OVCAR-5 ovarian and in the assay with NCI-H23 lung was greater than 10 µM throughout. Also, the TGI in the assay with HT29 colon, in the assay on NCI-H522 lung, with OVCAR-3 ovarian and in the assay on U251 CNS was greater than 10 µM each time.

With `C/C(=N\O)c1ccc(Nc2cc(-c3ccccc3)nc3c(O)cccc23)cc1`, the GI50 in the assay on EKVX NSCLC is 18.9 µM; with HOP-92 NSCLC, 20.1 µM; in the assay on IGROV1 ovarian, 17.1 µM; in the assay on KM12 colon, 4.06 µM; with OVCAR-5 ovarian, 23.8 µM; in the assay on NCI-H23 lung it was 17 µM. Besides, the GI50 with HT29 colon is 19.8 µM; in the assay with NCI-H522 lung it was 16.7 µM; with OVCAR-3 ovarian it was 5.49 µM; in the assay with U251 CNS it was 11.8 µM. Also, the TGI is greater than 100 µM with EKVX NSCLC; 44.6 µM in the assay on HOP-92 NSCLC; 34.6 µM with IGROV1 ovarian; 21.4 µM in the assay with KM12 colon; 47.4 µM in the assay with OVCAR-5 ovarian; 49.5 µM with NCI-H23 lung. Moreover, the TGI worked out at 48.1 µM with HT29 colon, 33.3 µM in the assay with NCI-H522 lung, 31.7 µM in the assay with OVCAR-3 ovarian and 38.6 µM in the assay on U251 CNS.

Values taken from PubChem BioAssay (NCI).
